Data published in patent US11286228B2, “Stilbene derivative and method for preparing same” (Ozchela Inc., priority 2016, dated 2022).
Read-outs that look alike come from different tables or passages of the source.

Assays:
cyclophilin = assay: Cis-trans isomerase inhibitory activity (chymotrypsin-coupled Suc-AAPF-pNA cleavage, absorbance 390 nm); type: biochemical; settings: cyclophilin, chymotrypsin, Suc-AAPF-pNA; read-out: Test Example 1: cis-trans isomerase inhibitory activity (IC50)
Outline: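 Cyclophilin isomerase activity coupled to chymotrypsin cleavage of Suc-AAPF-pNA: chymotrypsin cuts only the trans peptide, so isomerase-driven cis-to-trans conversion increases cleavage within a fixed period. Released product read by absorbance at 390 nm with compound present alongside cyclophilin.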

hepatitis C virus = assay: Antiviral activity in HCV replicon cells (Renilla luciferase); type: cell-based; settings: read-out: Test Example 3: antiviral activity (EC50)
Outline: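 Replicon cells stably carrying the HCV genome, pre-cultured 24 h at 37 °C, treated with compound for 72 h, then lysed on ice. Renilla luciferase luminescence used as a measure of HCV genome level, expressed relative to DMSO-treated cells, from which EC50 was derived.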

[1] = tested on: mitochondria obtained from hepatocytes; assay: Inhibitory activity on calcium-induced mitochondrial swelling (absorbance 520 nm); settings: calcium-induced swelling of extracted mitochondria, read-out: Test Example 4: inhibiting mitochondrial swelling (IC50)
Outline: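 Mitochondria isolated from hepatocytes by Dounce disruption, 700×g clearing and 12,000×g pelleting. Swelling induced with calcium and followed as absorbance at 520 nm; activity expressed as IC50.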

[2] = Cytotoxicity, MTT test in HCV replicon cells; type: cell-based
Experimental: The cytotoxicity of the stilbene derivatives was measured. Replicon cells that stably replicate a hepatitis C virus genome were attached to a 96-well plate and cultured in a CO2 incubator at 37° C. for 24 hr. The replicon cells cultured for one day were washed with a phosphate buffered saline (PBS) solution, treated with the compounds of the present invention, and then cultured for 72 hr. Thereafter, through the MTT [3-(4,5-dimethylthiazol-2-yl)-2,5-diphenyltetrazolium bromide] cytotoxicity test, CC50 values of the compounds of the present invention were measured. The CC50 values of the compounds of the present invention were 200 μM or more.

[3] = Hepatitis C virus, HCV replicon cells, 72 hr, Renilla luciferase, relative to DMSO

In the case of `CCCCOC(=O)c1c(C=Cc2ccc(CC(C)(C)C)cc2)cccc1CC` [Compound 66], the IC50 (cyclophilin) is reported as 0.02 to 0.2 µM, the EC50 (hepatitis C virus; [3]) is reported as 0.5 to 5 µM and the IC50 ([1]; Hepatocyte) is reported as 5 to 50 µM. The CC50 at 72 h [2] was 245 µM.

In the case of `CCCCOC(=O)c1ccccc1C=Cc1ccc(CC(C)(C)C)cc1` [Compound 64], the IC50 (cyclophilin) is reported as no more than 0.02 µM, the EC50 (hepatitis C virus; [3]) is reported as less than 0.5 µM and the IC50 ([1]; Hepatocyte) is reported as less than 5 µM. The CC50 at 72 h [2] was 320 µM.

`CCCCOC(=O)c1c(C)cccc1C=Cc1ccc(CC(C)(C)C)cc1` [Compound 65] gave an IC50 (cyclophilin) of 0.02 to 0.2 µM, an EC50 (hepatitis C virus; [3]) of 0.5 to 5 µM and an IC50 ([1]; Hepatocyte) of 5 to 50 µM. The CC50 at 72 h [2] was 284 µM.

`N#CC(=Cc1ccccc1CCc1cccc(Cl)c1)c1ccc([N+](=O)[O-])cc1` [Compound 47] showed an IC50 (cyclophilin) of 0.02 to 0.2 µM, an EC50 (hepatitis C virus; [3]) of 0.5 to 5 µM and an IC50 ([1]; Hepatocyte) of 5 to 50 µM.

For `Cc1ccc(C(C#N)=Cc2ccccc2N(C)C)cc1` [Compound 1], the IC50 (cyclophilin) was 0.2 to 2 µM, the EC50 (hepatitis C virus; [3]) was 5 to 50 µM and the IC50 ([1]; Hepatocyte) was 50 to 500 µM.

In the case of `CCCCOC(=O)c1ccccc1C=C(N)c1ccc(CC(C)(C)C)cc1` [Compound 98], the IC50 (cyclophilin) is reported as 0.02 to 0.2 µM, the EC50 (hepatitis C virus; [3]) is reported as 0.5 to 5 µM and the IC50 ([1]; Hepatocyte) is reported as 5 to 50 µM.

In the case of `CCCCOC(=O)c1cc(C)ccc1C=C(C)c1ccc(CC(C)(C)C)cc1` [Compound 85], the IC50 (cyclophilin) is reported as 0.02 to 0.2 µM, the EC50 (hepatitis C virus; [3]) is reported as 0.5 to 5 µM and the IC50 ([1]; Hepatocyte) is reported as 5 to 50 µM.

For `N#CC(=Cc1ccccc1CCc1ccc(Cl)cc1)c1ccc([N+](=O)[O-])cc1` [Compound 48], the IC50 (cyclophilin) was 0.02 to 0.2 µM, the EC50 (hepatitis C virus; Hepatitis C virus, 72 h) was 0.5 to 5 µM and the IC50 ([1]; Hepatocyte) was 5 to 50 µM.

Work on `CCCCCOC(=O)c1ccccc1C=Cc1ccc(CC(C)(C)C)cc1` [Compound 72] yielded an IC50 (cyclophilin) of no more than 0.02 µM, an EC50 (hepatitis C virus; HCV replicon cells, 72 hr, Renilla luciferase, relative to DMSO) of less than 0.5 µM and an IC50 [1] of less than 5 µM.
